Reference: ChEMBL document CHEMBL1201862, “PubChem BioAssay data set” (2004)
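Results reflect a 48-hour exposure of cells in 96-well plates to compound at five concentrations. GI50 is the concentration that inhibits growth by half.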 The source made the active and inactive calls. No stated cut-off is given here; in the data, active = GI50 up to about 1.1 µM and inactive = higher. Starred links: 1 amine or outer side, 2 acyl side, 3 side chain; linkers in the order of their positions; H or OH if unused. Positions of bridges follow the written chain, without caps; N, C: chain ends. Non-standard residues stand in square brackets, D forms with d. Residues, ends and D or L forms follow the SMILES beside them. ξ: configuration not given here. X11 = CCC(C)C(N[*:1])C(O)CC(=O)O[C@H](C(=O)C(C)C(=O)[*:2])C(C)C; X10 = O=C([C@@H]1CC(O)CN1[*:1])[*:2]; NMeY = CN[C@@H](Cc1ccc(O)cc1)C(=O)O; ξNMeL = CNC(CC(C)C)C(=O)O; ξT = CC(O)C(N)C(=O)O

Experiments:
Test in all cases: growth of human tumour cells (NCI), 48 h
[1] = tested on: SF-539
[2] = tested on: U-251
[3] = tested on: NCI-H23
[4] = tested on: HL-60
[5] = tested on: MOLT-4
[6] = tested on: MDA-MB-231
[7] = tested on: CAKI-1
[8] = tested on: EKVX
[9] = tested on: A549
[10] = tested on: HCT-116
[11] = tested on: T47D
[12] = tested on: SF-268
[13] = tested on: NCI-H226
[14] = tested on: HOP-62
[15] = tested on: SK-MEL-28
[16] = tested on: UACC-257
[17] = tested on: 786-0
[18] = tested on: SK-MEL-2
[19] = tested on: OVCAR-8
[20] = tested on: MDA-N
[21] = tested on: Malme-3M
[22] = tested on: SF-295
[23] = tested on: SW-620
[24] = tested on: SNB-75
[25] = tested on: ACHN
[26] = tested on: RPMI-8226
[27] = tested on: UO-31
[28] = tested on: HCT-15
[29] = tested on: COLO 205
[30] = tested on: CCRF-CEM
[31] = tested on: LOX IMVI
[32] = tested on: RXF 393
[33] = tested on: MDA-MB-435
[34] = tested on: M14
[35] = tested on: TK-10
[36] = tested on: NCI/ADR-RES
[37] = tested on: HT-29
[38] = tested on: OVCAR-4
[39] = tested on: OVCAR-3
[40] = tested on: DU-145
[41] = tested on: SNB-19
[42] = tested on: IGROV-1
[43] = tested on: SK-OV-3
[44] = tested on: MCF7
[45] = tested on: Hs-578T
[46] = tested on: PC-3
[47] = tested on: OVCAR-5
[48] = tested on: K562
[49] = tested on: HCC 2998
[50] = tested on: SR
[51] = tested on: KM12
[52] = tested on: A498
[53] = tested on: NCI-H522
[54] = tested on: BT-549
[55] = tested on: HOP-92
[56] = tested on: UACC-62
[57] = tested on: SN12C
[58] = tested on: NCI-H460
[59] = tested on: SK-MEL-5
[60] = tested on: M19-MEL
[61] = tested on: DMS-114
[62] = tested on: SNB-78
[63] = tested on: KM-20L2
[64] = tested on: LXFL 529
[65] = tested on: DMS-273

Measured: GI50

COc1cc2c(cc1O)CC[C@@H]1C2CC[C@@]2(C)C1CC[C@@H]2O (stereo not given in full)
active: [1] 0.807 µM | [4] 0.47 µM | [5] 0.532 µM | [20] 0.103 µM | [21] 0.771 µM | [23] 0.635 µM | [24] 1.07 µM | [26] 0.57 µM | [30] 0.689 µM | [33] 0.105 µM | [34] 0.91 µM | [36] 0.458 µM | [39] 0.634 µM | [48] 0.312 µM | [50] 0.073 µM | [53] 0.482 µM | [54] 0.472 µM
0.566 µM: [28]
inactive: [2] 1.16 µM | [3] 2.05 µM | [6] 3.4 µM | [7] 13.5 µM | [8] 6.17 µM | [9] 4.48 µM | [10] 1.19 µM | [11] 4.66 µM | [12] 3.43 µM | [13] 48.5 µM | [14] 2.28 µM | [15] 3.7 µM | [16] 11.2 µM | [17] 2.07 µM | [18] 1.32 µM | [19] 2 µM | [22] 3.16 µM | [25] 9.84 µM | [27] 6.65 µM | [29] 36.7 µM | [31] 2.89 µM | [32] 6.24 µM | [35] 14 µM | [37] 21 µM | [38] 29.6 µM | [40] 2.46 µM | [41] 16.3 µM | [42] 5.51 µM | [43] 3.22 µM | [44] 1.6 µM | [45] 1.14 µM | [46] 6.24 µM | [47] 37 µM | [49] 9.62 µM | [51] 4.43 µM | [52] 16.7 µM | [55] 10.7 µM | [56] 1.21 µM | [57] 6.85 µM | [58] 1.96 µM | [59] 1.35 µM

CCC(C)C1NC(=O)C(NC(=O)C(CC(C)C)N(C)C(=O)[C@@H]2CC(O)CN2)C(C)OC(=O)[C@H](Cc2ccc(OC)cc2)N(C)C(=O)[C@@H]2CCCN2C(=O)[C@H](CC(C)C)NC(=O)C(C)C(=O)[C@H](C(C)C)OC(=O)CC1O (stereo not given in full) (H-[X10][ξNMeL][ξT][X11]LP[NMeY](Me); ester 3-C)
0.472 µM: [28]
inactive: [36] 1.45 µM
active: [1] 0.00157 µM | [2] 0.00175 µM | [3] 0.01 µM | [4] 0.0114 µM | [5] 0.00161 µM | [6] 0.0224 µM | [7] 0.232 µM | [8] 0.01 µM | [9] 0.0228 µM | [10] 0.00143 µM | [11] 0.0035 µM | [12] 0.011 µM | [13] 0.00182 µM | [14] 0.00931 µM | [15] < 0.001 µM | [16] 0.0152 µM | [17] 0.0121 µM | [18] 0.00399 µM | [19] 0.0384 µM | [20] 0.00561 µM | [21] 0.00336 µM | [22] 0.0113 µM | [23] 0.0108 µM | [24] 0.0106 µM | [25] 0.0382 µM | [26] 0.0082 µM | [27] 0.233 µM | [29] 0.00309 µM | [30] 0.00233 µM | [31] 0.00311 µM | [32] 0.0115 µM | [33] 0.0102 µM | [34] 0.00419 µM | [35] 0.164 µM | [37] 0.00445 µM | [38] 0.00594 µM | [39] 0.014 µM | [40] 0.0363 µM | [41] 0.00819 µM | [42] 0.00272 µM | [43] 0.00321 µM | [44] < 0.001 µM | [45] < 0.001 µM | [46] 0.0135 µM | [47] 0.0275 µM | [48] 0.00394 µM | [49] 0.00469 µM | [50] 0.0148 µM | [51] < 0.001 µM | [52] 0.0548 µM | [53] 0.00488 µM | [54] 0.00609 µM | [55] 0.0189 µM | [56] < 0.001 µM | [57] 0.00951 µM | [58] 0.00491 µM | [59] < 0.001 µM

CCOP(=O)(OCC)/C(C#N)=C/c1cc(O)ccc1O
inactive: [1] > 100 µM | [2] > 100 µM | [60] > 100 µM | [3] > 100 µM | [61] > 100 µM | [10] > 100 µM | [12] > 100 µM | [14] > 100 µM | [15] > 100 µM | [16] > 100 µM | [18] > 100 µM | [21] > 100 µM | [22] > 100 µM | [62] > 100 µM | [24] 79.3 µM | [25] > 100 µM | [26] > 100 µM | [27] > 100 µM | [29] > 100 µM | [32] > 100 µM | [34] > 100 µM | [37] > 100 µM | [38] > 100 µM | [39] > 100 µM | [41] > 100 µM | [42] > 100 µM | [43] > 100 µM | [63] > 100 µM | [47] > 100 µM | [48] > 100 µM | [64] > 100 µM | [51] > 100 µM | [52] > 100 µM | [55] > 100 µM | [56] > 100 µM | [58] > 100 µM

C[C@@]12CCC(=O)C=C1CC[C@H]1C2=CC[C@]2(C)C1CC[C@@]2(C)O (stereo not given in full)
inactive: [1] 61.9 µM | [2] 41.3 µM | [3] 66.8 µM | [4] 25.4 µM | [5] 38.4 µM | [6] 67.5 µM | [7] 48.3 µM | [8] > 100 µM | [9] 50.4 µM | [10] 52 µM | [11] 73.5 µM | [12] 75.2 µM | [13] > 100 µM | [14] 67.8 µM | [15] > 100 µM | [16] 69.2 µM | [17] > 100 µM | [18] 38 µM | [19] > 100 µM | [20] 23 µM | [21] > 100 µM | [22] 32.3 µM | [23] 40.6 µM | [24] 66.1 µM | [25] > 100 µM | [26] 54.7 µM | [27] 41.9 µM | [29] 35 µM | [30] 40.4 µM | [31] > 100 µM | [32] > 100 µM | [33] 23.3 µM | [34] 50.6 µM | [35] > 100 µM | [36] 34.7 µM | [37] 37.9 µM | [38] 25.2 µM | [39] 34.1 µM | [40] > 100 µM | [41] > 100 µM | [42] 79.3 µM | [43] 54.6 µM | [44] 57.3 µM | [45] 38.2 µM | [46] 41.5 µM | [47] > 100 µM | [48] 38.4 µM | [49] 49 µM | [50] 34.8 µM | [51] 29.7 µM | [52] > 100 µM | [53] 28.1 µM | [54] 33.1 µM | [55] > 100 µM | [56] 37 µM | [57] 88.7 µM | [58] 43.6 µM | [59] 41.6 µM
36.2 µM: [28]

Cc1ccc(S(=O)(=O)OC(COC(=O)c2ccccc2)C(OS(=O)(=O)c2ccc(C)cc2)C(OS(=O)(=O)c2ccc(C)cc2)C(COC(=O)c2ccccc2)OS(=O)(=O)c2ccc(C)cc2)cc1 (stereo not given)
> 100 µM: [28]
inactive: [1] > 100 µM | [2] > 100 µM | [60] > 100 µM | [3] > 100 µM | [4] > 100 µM | [5] > 100 µM | [7] > 100 µM | [8] > 100 µM | [9] > 100 µM | [10] > 100 µM | [12] > 100 µM | [14] > 100 µM | [15] > 100 µM | [16] > 100 µM | [17] > 100 µM | [18] > 100 µM | [19] > 100 µM | [21] > 100 µM | [22] > 100 µM | [23] > 100 µM | [62] > 100 µM | [24] 29.1 µM | [25] > 100 µM | [26] > 100 µM | [27] > 100 µM | [29] > 100 µM | [30] > 100 µM | [31] > 100 µM | [32] > 100 µM | [34] > 100 µM | [35] > 100 µM | [37] > 100 µM | [38] > 100 µM | [65] > 100 µM | [39] > 100 µM | [41] > 100 µM | [42] > 10 µM | [43] > 10 µM | [63] > 100 µM | [48] > 100 µM | [49] > 100 µM | [50] > 100 µM | [64] > 100 µM | [51] > 100 µM | [52] > 100 µM | [53] > 100 µM | [55] > 100 µM | [56] > 10 µM | [57] > 100 µM | [58] > 100 µM | [59] > 100 µM
